# Measured values reported in publication PMC9643456, “Matching amino acids membrane preference profile to improve activity of antimicrobial peptides” (Communications Biology, 2022).
# Like-named read-outs stand apart in the source and are kept apart here. Square brackets hold non-standard residues; d marks the D form. Peptide text beside a SMILES is read from it.
# Tests used:
# [1] = test system: A. baumannii strains; experiment: microbe, parasite or virus in culture
# Protocol: (§1) Twenty-six A. baumannii strains were clinically isolated and gifted to us by the Kyungpook National University School of Medicine. One A. baumannii strain (ATCC 17978) was purchased and gifted to us by Kyungpook National University School of Medicine. One A. baumannii strain and 10 K. pneumoniae strains (NCCP) were purchased from the National Culture Collection for Pathogens.
# (§2) To assess antimicrobial activity, the MIC50 and MIC90 were measured using broth microdilution following CLSI guidelines. […] Each experiment was performed in triplicate. Meropenem (Sigma, Darmstadt, Germany) and colistin were used as control antibiotics. Cation-adjusted Mueller–Hinton broth (CAMHB) (Becton, Dickinson and Company, Franklin Lakes, USA) with supplied calcium (50 mg/L) and magnesium (10 mg/L) was used for the CLSI-test condition. Bacteria in midlog phase and peptides were separately diluted in CAMHB. The bacteria and peptide solutions were then mixed in 96-well polyethylene plates (SPL, Gyeonggi-do, Korea) and incubated for 18 h at 37 °C. The final concentration for bacteria was 5 × 10^5 CFU/ml. […] The MIC was defined to be the lowest concentration of peptide without visible turbidity by comparing with control antibiotics with the unaided eye. […] Each experiment was performed in triplicate. MICs in albumin and acetic acid solutions were measured using the same protocol but with 0.2% bovine serum albumin (Bovogen, Keilor, Australia), 0.01% acetic acid (Merck, New Jersey, USA), and CAMHB with both calcium and magnesium. In addition, MICs used in the antibiotic resistance acquisition test, the outer–inner membrane permeation test, and the transmembrane potential test and for FE-SEM were individually determined. The final bacterial concentrations used were as follows: for resistance acquisition, optical density (OD) 0.01; for outer–inner membrane permeability assays (LB), OD 0.1; for the transmembrane potential test, 1 × 10^8 CFU/ml (OD 0.171); […]. Inhibitory activity unidentifiable by direct observation was determined by counting the CFUs. Each experiment was performed at least twice.
# [2] = test system: K. pneumonia strains; experiment: microbe, parasite or virus in culture; conditions: Klebsiella pneumoniae
# Protocol: as §1, §2
# [3] = test system: human red blood cells; experiment: Hemolytic activity; type: cell-based; conditions: red cells of human, 18 h
# Method in brief: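 Haemolysis was read as A540 of cleared supernatants after 18 h at 37 °C, with 0% and 100% lysis set by peptide-free PBS and 1% Triton X-100 and melittin as positive control. Human RBCs were at 4% final, peptide serially diluted 100–0.78 μM; three replicates.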
# [4] = Maximum soluble concentration / turbidity; type: physicochemical; conditions: distilled water
# Protocol: Supplementary Methods Bacteria preparation, Antimicrobial peptides preparation, Minimal-inhibitory-concentration measurements, Hemolysis-activity measurements, Tryptophan fluorescence measurements, Isothermal titration calorimetry measurements, Bacteria membrane ion permeation measurements, Outer-inner membrane permeation, Field-emission scanning electron microscopy and Antimicrobial kinetics were performed as described in Materials and Methods. Liposome (LUV) preparation. Bacterial-membrane-mimic DMPC/DMPG unilamellar vesicles (LUV) and mammalian- membrane-mimic PC/cholesterol vesicles with 100-nm diameters were prepared by extrusion. LiposoFast Liposome Factory Basic unit with stabilizer (Avestin, Ottawa, Canada) was used to extrude liposomes 50 times through a polycarbonate membrane filter (pore diameter, 100 nm; filter diameter, 0.75 inches) (Avestin). […] rac-(1-glycerol)) (sodium salt) (DMPG) (Avanti, Alabama, USA); 1,2-Dimyristoyl-sn-glycero-3-phosphocholine (DMPC) (Avanti); and cholesterol (Sigma, Darmstadt, Germany) were used. For circular dichroism, isothermal titration calorimetry, tryptophan fluorescence, and dynamic light scattering experiments, liposomes were reconstructed and resuspendedwith phosphate-buffered saline (PBS; Welgene Inc, Gyeongsangbuk-do, Korea). For calcein-permeation tests, liposomes were reconstructed with calcein solutions (80 mM, 40 mM, 30 mM, 20 mM, and 10 mM) (Sigma, Darmstadt, Germany), purified with Sephadex-G50 columns (Pharmacia biotech, Stockholm, Sweden), and resuspended with PBS. Maximum-soluble -concentration measurements. […] turbidity with PBS. The lowest concentration of peptide without visible turbidity was determined to be the maximu m soluble concentration. Each experiment was performed at least twice. Circular dichroism (CD) spectrum. DMPC/PG -liposome, PC/cholesterol -liposome, and peptide stock solutions were diluted in PBS. For circular dichroism, PBS with neither liposome nor peptides was also prepared. Liposomes and peptides were mixed to […] Samples were transferred into type J/1 cuvettes (Jasco, Tokyo, Japan). Cuvettes were placed into the J -815 circular -dichroism spectrometer (Jasco, Tokyo, Japan). Measurement parameters were as follows: wavelength, 190 -260 nm; data pitch, 0.2 nm; bandwidth, 1.00 nm; […] Each experiment was performed in triplicate. Data below 197 nm was not analyzed because o f experimental difficulties in obtaining those spectra. Each experiment was performed at least twice. Artificial membrane calcein permeation measurements. Calcein fluorescence was used to measure peptide -induced liposome permeation. Calcein solutions (10 mM, 20 mM, or 60 mM) containing PC/PG liposomes and peptides were diluted in PBS ( ×1, ×2, ×3, ×8). […] Liposome solutions (180 μl) were transferred to wells of black, clear -bottomed 96 -well plates (Costar, New York, USA). Peptide […] Liposome-containing plates and peptide -containing plates were inserted into a Flexstation 3 Multi -Mode Microplate Reader (Molecular Devices, California, USA). Peptide solutions (20 μl) were transferred and mixed with liposome solution automatical ly after 30 sec. […] Measurement parameters were as follows: excitation, 490 nm; emission, 520 nm; temperature, 37 °C. […] was transferred and mixed with the liposome -peptide solu tions automatically after 300 sec to acquire fluorescence at maximum leakage. […] Fluorescence measured between 0 -300 sec after addition of 0 μg/ml peptide was considered the baseline. Each experiment was performed at least twice. Dynamic light scattering (DLS) measurements. Dynamic light scattering was used to measure peptide -induced liposome volume changes. PC/PG -liposome stock solutions and peptides were resuspended in PBS. Liposomes and peptides were mixed to […]
# [5] = test system: MDR P. aeruginosa; experiment: microbe, parasite or virus in culture; conditions: CLSI broth microdilution; CAMHB with 50 mg/L Ca2+, 10 mg/L Mg2+; 5 × 10^5 CFU/ml; 18 h 37 °C; no visible turbidity; triplicate; strain CCARM 2180
# Method in brief: (§3)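 CLSI broth microdilution used CAMHB supplemented with Ca (50 mg/L) and Mg (10 mg/L); runs in triplicate against meropenem/colistin controls.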
# [6] = test system: MDR E. faecalis; experiment: microbe, parasite or virus in culture; conditions: CLSI broth microdilution; CAMHB with 50 mg/L Ca2+, 10 mg/L Mg2+; 5 × 10^5 CFU/ml; 18 h 37 °C; triplicate; strain ATCC 51575
# Method in brief: as §3
# [7] = test system: MDR A. baumannii; experiment: microbe, parasite or virus in culture; conditions: CLSI broth microdilution; CAMHB with 50 mg/L Ca2+, 10 mg/L Mg2+; 5 × 10^5 CFU/ml; 18 h 37 °C; triplicate; strain ATCC BAA-1605
# Method in brief: as §3
# [8] = test system: MDR S. aureus; experiment: microbe, parasite or virus in culture; conditions: CLSI broth microdilution; CAMHB with 50 mg/L Ca2+, 10 mg/L Mg2+; 5 × 10^5 CFU/ml; 18 h 37 °C; triplicate; strain KCCM 40510
# Method in brief: as §3
structure (smiles),measurement,setting,value
C[C@@H](O)[C@H]1C(=O)N2C(C(=O)O)=C(S[C@@H]3CN[C@H](C(=O)N(C)C)C3)[C@H](C)[C@H]12 [Meropenem],MIC50,[1]; Acinetobacter baumannii,≥ 20 µM
same,MIC90,[1]; Acinetobacter baumannii,≥ 20 µM
same,MIC,"[1]; Acinetobacter baumannii, ATCC17978, read-out: MIC, A. baumannii ATCC 17978",< 0.31 µM
same,MIC,"[1]; Acinetobacter baumannii, KCCM40203, read-out: MIC, A. baumannii KCCM 40203",5 µM
same,MIC,"[1]; Acinetobacter baumannii, read-out: MIC, A. baumannii ATCC BBA 1605",> 20 µM
same,MIC,"[1]; Acinetobacter baumannii, read-out: MIC, A. baumannii Isolated strain 1",> 20 µM
same,MIC,"[1]; Acinetobacter baumannii, read-out: MIC, A. baumannii Isolated strain 3",> 20 µM
same,MIC,"[1]; Acinetobacter baumannii, read-out: MIC, A. baumannii Isolated strain 6",> 20 µM
same,MIC,"[1]; Acinetobacter baumannii, read-out: MIC, A. baumannii Isolated strain 10",> 20 µM
same,MIC,"[1]; Acinetobacter baumannii, read-out: MIC, A. baumannii Isolated strain 14",> 20 µM
same,MIC,"[1]; Acinetobacter baumannii, read-out: MIC, A. baumannii Isolated strain 15",< 0.31 µM
same,MIC,"[1]; Acinetobacter baumannii, read-out: MIC, A. baumannii Isolated strain 16",> 20 µM
same,MIC,"[1]; Acinetobacter baumannii, read-out: MIC, A. baumannii Isolated strain 19",> 20 µM
same,MIC,"[1]; Acinetobacter baumannii, read-out: MIC, A. baumannii Isolated strain 22",> 20 µM
same,MIC,"[1]; Acinetobacter baumannii, read-out: MIC, A. baumannii Isolated strain 39",> 20 µM
same,MIC,"[1]; Acinetobacter baumannii, read-out: MIC, A. baumannii Isolated strain 44",> 20 µM
same,MIC,"[1]; Acinetobacter baumannii, read-out: MIC, A. baumannii Isolated strain 66",> 20 µM
same,MIC,"[1]; Acinetobacter baumannii, read-out: MIC, A. baumannii Isolated strain 68",> 20 µM
same,MIC,"[1]; Acinetobacter baumannii, read-out: MIC, A. baumannii Isolated strain 69",> 20 µM
same,MIC,"[1]; Acinetobacter baumannii, read-out: MIC, A. baumannii Isolated strain 71",> 20 µM
same,MIC,"[1]; Acinetobacter baumannii, read-out: MIC, A. baumannii Isolated strain 76",> 20 µM
same,MIC,"[1]; Acinetobacter baumannii, read-out: MIC, A. baumannii Isolated strain 80",> 20 µM
same,MIC,"[1]; Acinetobacter baumannii, read-out: MIC, A. baumannii Isolated strain 82",> 20 µM
same,MIC,"[1]; Acinetobacter baumannii, read-out: MIC, A. baumannii Isolated strain 86",> 20 µM
same,MIC,"[1]; Acinetobacter baumannii, read-out: MIC, A. baumannii Isolated strain 89",> 20 µM
same,MIC,"[1]; Acinetobacter baumannii, read-out: MIC, A. baumannii Isolated strain 102",> 20 µM
same,MIC,"[1]; Acinetobacter baumannii, read-out: MIC, A. baumannii Isolated strain 127",> 20 µM
same,MIC,"[1]; Acinetobacter baumannii, read-out: MIC, A. baumannii Isolated strain 141",> 20 µM
same,MIC,"[1]; Acinetobacter baumannii, read-out: MIC, A. baumannii Isolated strain 144",> 20 µM
same,MIC,"[1]; Acinetobacter baumannii, read-out: MIC, A. baumannii Isolated strain 147",> 20 µM
same,MIC,"[1]; Acinetobacter baumannii, read-out: MIC, A. baumannii Isolated strain 152",> 20 µM
same,MIC,"[1]; Acinetobacter baumannii, read-out: MIC, A. baumannii NCCP 14654",> 20 µM
same,Number of A. baumannii strains at MIC (μM) 0.63,[1]; of 30 strains,0
same,Number of A. baumannii strains at MIC (μM) 1.25,[1]; of 30 strains,0
same,Number of A. baumannii strains at MIC (μM) 2.5,[1]; of 30 strains,0
same,Number of A. baumannii strains at MIC (μM) 5,[1]; of 30 strains,1
same,Number of A. baumannii strains at MIC (μM) 10,[1]; of 30 strains,0
same,Number of A. baumannii strains at MIC (μM) ≤0.31,[1]; of 30 strains,2
same,Number of A. baumannii strains at MIC (μM) ≥20,[1]; of 30 strains,27
same,MIC,"[2]; read-out: MIC, K. pneumonia NCCP 15782",> 20 µM
same,MIC,"[2]; read-out: MIC, K. pneumonia NCCP 15864",> 20 µM
same,MIC,"[2]; read-out: MIC, K. pneumonia NCCP 15866",> 20 µM
same,MIC,"[2]; read-out: MIC, K. pneumonia NCCP 16052",> 20 µM
same,MIC,"[2]; read-out: MIC, K. pneumonia NCCP 16124",> 20 µM
same,MIC,"[2]; read-out: MIC, K. pneumonia NCCP 16125",> 20 µM
same,MIC,"[2]; read-out: MIC, K. pneumonia NCCP 16128",20 µM
same,MIC,"[2]; read-out: MIC, K. pneumonia NCCP 16208",> 20 µM
same,MIC,"[2]; read-out: MIC, K. pneumonia NCCP 16212",> 20 µM
same,MIC,"[2]; read-out: MIC, K. pneumonia NCCP 16213",> 20 µM
"CC(C)C[C@H](NC(=O)[C@H](CCCNC(=N)N)NC(=O)CNC(=O)CNC(=O)[C@@H](N)CCCNC(=N)N)C(=O)N[C@H]1CSSC[C@@H](C(=O)N[C@H](C(=O)NCC(=O)N[C@@H](CCCNC(=N)N)C(N)=O)C(C)C)NC(=O)[C@H](C(C)C)NC(=O)[C@@H]2CSSC[C@H](NC(=O)[C@H](Cc3ccc(O)cc3)NC1=O)C(=O)N[C@@H](CCCNC(=N)N)C(=O)N[C@@H](CCCNC(=N)N)C(=O)N[C@@H](CCCNC(=N)N)C(=O)N[C@@H](Cc1ccccc1)C(=O)N2 [Protegrin-1, reference compound]","Hemolysis percent, 25 μM",[3],47.83 ±6.23%
same,"Hemolysis percent, 50 μM",[3],56.75 ±6.02%
same,"Hemolysis percent, 100 μM",[3],71.66 ±12.24%
same,solubility,[4],< 500 µM
CC[C@@H](C)[C@@H](NC(=O)[C@@H](Cc1c[nH]c2ccccc12)NC(=O)[C@@H](CC(C)C)NC(=O)[C@H](N)CC(C)C)C(=O)NCC(=O)N[C@H](CC(C)C)C(=O)N[C@H](CCCCN)C(=O)N[C@H](CCCCN)C(=O)N[C@H](CCCCN)C(=O)N[C@H](CCCCN)C(N)=O [WCopW14] (H-[dL][dL][dW][dI]G[dL][dK][dK][dK][dK]-NH2),"Hemolysis percent, 25 μM",[3],0.98%
same,"Hemolysis percent, 50 μM",[3],1.06%
same,"Hemolysis percent, 100 μM",[3],1.10%
same,"Minimum inhibitory concentrations, MDR P. aeruginosa",[5],> 20 µM
same,"Minimum inhibitory concentrations, MDR E. faecalis",[6],> 20 µM
same,"Minimum inhibitory concentrations, MDR A. baumannii",[7],> 20 µM
same,"Minimum inhibitory concentrations, MDR S. aureus",[8],> 20 µM
